# In patent publication US10751319B2, “Collection device and methods for use” (CRITITECH, INC., priority 2015, dated 2020):
# Where “and” joins values, the source holds several entries; their conditions need not be identical. Identical values can stand only once.
# How the values were obtained:
# Type in all cases: physicochemical
# [1] = BET analysis (surface area); details: listed as raw paclitaxel
# Method: A known mass between 200 and 300 mg of the analyte was added to a 30 mL sample tube. The loaded tube was then mounted to a Porous Materials Inc. SORPTOMETER®, model BET-202A. The automated test was then carried out using the BETWIN® software package and the surface area of each sample was subsequently calculated.
# Bulk density = details: room temperature
# Method: The mass of the drug was measured to a nearest 0.1 mg, the volume was determined to the nearest 0.1 mL and the density calculated.
# [2] = Docetaxel dissolution study, USP Apparatus II (Paddle); details: methanol/water 15/85, 37° C., pH 7, 75 rpm
# Method: At 5, 15, 30, 60, 120 and 225 minutes, a 5 mL aliquot was removed, filtered through a 0.22 μm filter, and analyzed on a UV/VIS spectrophotometer at 232 nm. Absorbance values of the samples were compared to those of standard solutions prepared in dissolution media to determine the amount of material dissolved.
Surface area [1] [m^2/g],Bulk Density (Bulk density) [g/mL],Dissolution ([2]; 0 minutes) [%],Dissolution ([2]; 5 minutes) [%],Dissolution ([2]; 15 minutes) [%],Dissolution ([2]; 30 minutes),Dissolution ([2]; 60 minutes) [%],Dissolution ([2]; 120 minutes) [%],Dissolution ([2]; 225 minutes) [%],Compound
7.25,0.26,,,,,,,,"CC(=O)O[C@H]1C(=O)[C@@]2(C)[C@H]([C@H](OC(=O)c3ccccc3)[C@]3(O)C[C@H](OC(=O)[C@H](O)[C@@H](NC(=O)c4ccccc4)c4ccccc4)C(C)=C1C3(C)C)[C@]1(OC(C)=O)CO[C@@H]1C[C@@H]2O [Paclitaxel Raw Material, paclitaxel]"
,0.24,0.0,3.2,6.9,11% and 11.2%,16.4,22.4,26.8,"CC(=O)O[C@@]12CO[C@@H]1C[C@H](O)[C@@]1(C)C(=O)[C@H](O)C3=C(C)[C@@H](OC(=O)[C@H](O)[C@@H](NC(=O)OC(C)(C)C)c4ccccc4)C[C@@](O)([C@@H](OC(=O)c4ccccc4)[C@H]21)C3(C)C [Docetaxel Raw Material, docetaxel]"
